These are literature values, as cited in patent publication US20020038007A1, “Method of finding agonist and antagonist to human 11cb splice variant” (priority 1996, published 2002).

For data set [1] the following is noted: injection into lateral ventricles of rats.
For data set [2] the following is noted: intracerebroventricular injection; Presse, F et al Neuroscience 1996.

On to “H-Asp-Phe-Asp-Met-Leu-Arg-Cys-Met-Leu-Gly-Arg-Val-Tyr-Arg-Pro-Cys-Trp-Gln-Val-OH (H-DFDMLRCMLGRVYRPCWQV-OH; cysteine pairing not given here) [MCH]”, for which the food consumption entry in data set [1] is given as “increased food consumption”. In addition, the feeding entry in data set [2] is reported as “inhibit feeding”.
